Data: ChEMBL document CHEMBL4342467, “Discovery of a Novel Dual-Target Inhibitor of ERK1 and ERK5 That Induces Regulated Cell Death to Overcome Compensatory Mechanism in Specific Tumor Types” (J Med Chem, 2020)

Tests used:
[1] = biological target: Mitogen-activated protein kinase 1 (Homo sapiens) (UniProt P28482); test: Inhibition of ERK2 (unknown origin) at 1 uM by Z'-Lyte assay relative to control
HeLa = test: Antiproliferative activity against human HeLa cells assessed as reduction in cell viability measured after 24 hrs; format: functional, cell-based
[2] = biological target: Mitogen-activated protein kinase 7 (Homo sapiens) (UniProt Q13164); test: Inhibition of ERK5 (unknown origin) at 1 uM by Z'-Lyte assay relative to control
MKN-74 = test: Antiproliferative activity against human MKN74 cells assessed as reduction in cell viability measured after 24 hrs; format: functional, cell-based; details: MKN-74, 24 h
HL-60 = test: Antiproliferative activity against human HL60 cells assessed as reduction in cell viability measured after 24 hrs; format: functional, cell-based; details: HL-60, 24 h
[3] = biological target: Mitogen-activated protein kinase 3 (Homo sapiens) (UniProt P27361); test: Inhibition of ERK1 (unknown origin) at 1 uM by Z'-Lyte assay relative to control
Mitogen-activated protein kinase 3 (Homo sapiens), sequence (P27361 whole entry): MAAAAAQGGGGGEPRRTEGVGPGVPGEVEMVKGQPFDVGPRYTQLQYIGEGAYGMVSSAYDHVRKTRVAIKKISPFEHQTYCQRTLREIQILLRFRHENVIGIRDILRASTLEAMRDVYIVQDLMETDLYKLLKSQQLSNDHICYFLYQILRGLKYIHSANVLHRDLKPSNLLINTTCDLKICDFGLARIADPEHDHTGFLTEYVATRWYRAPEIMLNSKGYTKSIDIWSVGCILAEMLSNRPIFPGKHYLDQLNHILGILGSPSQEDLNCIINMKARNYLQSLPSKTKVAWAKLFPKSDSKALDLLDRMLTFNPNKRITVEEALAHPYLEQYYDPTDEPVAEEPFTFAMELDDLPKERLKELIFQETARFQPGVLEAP

Mitogen-activated protein kinase 7 (Homo sapiens), sequence (Q13164 2-816 limits assumed): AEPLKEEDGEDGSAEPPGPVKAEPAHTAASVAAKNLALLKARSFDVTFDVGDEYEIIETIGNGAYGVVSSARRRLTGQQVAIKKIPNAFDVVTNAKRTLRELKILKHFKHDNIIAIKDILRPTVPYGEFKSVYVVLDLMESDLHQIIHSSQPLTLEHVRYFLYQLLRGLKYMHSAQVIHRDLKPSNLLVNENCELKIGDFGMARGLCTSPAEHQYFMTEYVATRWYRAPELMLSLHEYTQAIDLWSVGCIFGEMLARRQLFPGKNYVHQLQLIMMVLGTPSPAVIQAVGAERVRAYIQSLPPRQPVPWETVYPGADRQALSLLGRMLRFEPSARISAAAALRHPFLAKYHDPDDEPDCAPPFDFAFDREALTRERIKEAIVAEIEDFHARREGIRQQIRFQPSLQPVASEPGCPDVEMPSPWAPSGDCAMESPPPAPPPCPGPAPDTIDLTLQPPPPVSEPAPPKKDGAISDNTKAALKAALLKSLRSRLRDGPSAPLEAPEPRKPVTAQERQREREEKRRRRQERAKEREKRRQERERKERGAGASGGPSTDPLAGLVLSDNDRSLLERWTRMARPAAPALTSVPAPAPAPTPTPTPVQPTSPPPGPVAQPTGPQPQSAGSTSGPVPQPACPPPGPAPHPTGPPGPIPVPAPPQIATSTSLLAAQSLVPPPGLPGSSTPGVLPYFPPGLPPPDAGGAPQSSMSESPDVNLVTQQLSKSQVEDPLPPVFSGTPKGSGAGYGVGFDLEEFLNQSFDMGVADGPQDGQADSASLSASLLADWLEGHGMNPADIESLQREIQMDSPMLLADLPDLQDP
Mitogen-activated protein kinase 1 (Homo sapiens), sequence (P28482 whole entry): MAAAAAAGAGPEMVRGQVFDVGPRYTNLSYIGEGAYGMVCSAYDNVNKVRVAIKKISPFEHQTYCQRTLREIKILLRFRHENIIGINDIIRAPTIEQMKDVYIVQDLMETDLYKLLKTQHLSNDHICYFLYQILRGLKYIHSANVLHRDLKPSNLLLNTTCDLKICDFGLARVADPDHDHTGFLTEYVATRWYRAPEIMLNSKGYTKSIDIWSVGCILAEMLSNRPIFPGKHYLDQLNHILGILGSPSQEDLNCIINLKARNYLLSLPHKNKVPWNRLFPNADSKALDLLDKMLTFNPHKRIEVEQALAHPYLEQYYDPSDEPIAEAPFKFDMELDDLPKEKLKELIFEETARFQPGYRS

Row | SMILES | inhibition [1] | IC50 (HeLa) | inhibition [2] | IC50 (MKN-74) | IC50 (HL-60) | inhibition [3]
1 | Cc1ccccc1NC(=S)N1CCc2c(sc(NC(=O)c3ccccc3C(F)(F)F)c2C(N)=O)C1 | 62.8% | 47 µM | 48.3% | 47.4 µM | 25.1 µM | 64.9%
2 | NC(=O)c1c(NC(=O)c2ccccc2Cl)sc2c1CCN(C(=S)Nc1ccc(C(F)(F)F)cc1)C2 | 54.4% | > 50 µM | 57.4% | 7.09 µM | 7.59 µM | 80.5%
3 | NC(=O)c1c(NC(=O)c2ccccc2F)sc2c1CCN(C(=O)Nc1ccccc1Cl)C2 | 62.4% | > 50 µM | 54.9% | 49.6 µM | 32.7 µM | 65%
4 | CCCCCC(=O)Nc1sc2c(c1C(N)=O)CCN(C(=S)NCCCC)C2 | 68.5% | > 50 µM | 43.3% | > 50 µM | > 50 µM | 60.5%
5 | NC(=O)c1c(NC(=O)c2ccc(C(F)(F)F)cc2)sc2c1CCN(Cc1ccc(Cl)cc1)C2 | 43.3% | > 50 µM | 61.1% | > 50 µM | > 50 µM | 47.8%
6 | Cc1ccccc1NC(=S)N1CCc2c(sc(NC(=O)c3ccccc3Br)c2C(N)=O)C1 | 60.8% | > 50 µM | 46.7% | > 50 µM | > 50 µM | 65.1%
7 | Cc1ccccc1NC(=S)N1CCc2c(sc(NC(=O)c3ccccc3Cl)c2C(N)=O)C1 | 72.8% | > 50 µM | 59.3% | 11.7 µM | 22.6 µM | 68.4%
8 | N#Cc1ccccc1CN1CCc2c(sc(NC(=O)c3ccccc3Cl)c2C(N)=O)C1 | 42.1% | > 50 µM | 44.3% | 9.5 µM | 10.4 µM | 55.8%
9 | NC(=O)c1c(NC(=O)c2ccccc2)sc2c1CCN(C(=S)Nc1ccccc1)C2 | 66.3% | > 50 µM | 61.4% | > 50 µM | > 50 µM | 65.8%
10 | NC(=O)c1c(NC(=O)c2ccc(C(F)(F)F)cc2)sc2c1CCN(Cc1ccccc1F)C2 | 76.8% | > 50 µM | 56.8% | 26.9 µM | > 50 µM | 72.2%
11 | NC(=O)c1c(NC(=O)c2ccccc2I)sc2c1CCN(C(=S)Nc1ccccc1Cl)C2 | 85.8% | > 50 µM | 80.4% | 17.5 µM | 8.56 µM | 83.5%
12 | NC(=O)c1c(NC(=O)c2ccc[nH]2)sc2c1CCN(C(=S)Nc1cccnc1)C2 | 79.7% | 47.4 µM | 48.6% | > 50 µM | > 50 µM | 74.4%
13 | NC(=O)c1c(NC(=O)c2ccc(C(F)(F)F)cc2)sc2c1CCN(C(=O)Nc1ccccc1Cl)C2 | 77.6% | > 50 µM | 62.2% | 43.9 µM | > 50 µM | 78.3%
14 | NC(=O)c1c(NC(=O)c2ccccc2Cl)sc2c1CCN(Cc1ccc(Cl)cc1)C2 | 55.4% | > 50 µM | 47% | 18.7 µM | 22.5 µM | 47.4%
15 | NC(=O)c1c(NC(=O)c2ccc(C(F)(F)F)cc2)sc2c1CCN(Cc1ccc(Cl)cc1Cl)C2 | 33.2% | > 50 µM | 40% | 10.8 µM | 14.8 µM | 39.6%
16 | COc1ccccc1NC(=S)N1CCc2c(sc(NC(=O)c3ccccc3Cl)c2C(N)=O)C1 | 70.6% | > 50 µM | 53.7% | 35.2 µM | 40.9 µM | 71.3%
17 | NC(=O)c1c(NC(=O)c2cccc([N+](=O)[O-])c2)sc2c1CCN(C(=O)Nc1ccccc1Cl)C2 | 60.4% | > 50 µM | 65.7% | 22.7 µM | 18.5 µM | 71.3%
18 | Cc1ccccc1CN1CCc2c(sc(NC(=O)c3ccccc3Cl)c2C(N)=O)C1 | 53.4% | > 50 µM | 55.3% | > 50 µM | > 50 µM | 60.6%
19 | COc1ccccc1C(=O)Nc1sc2c(c1C(N)=O)CCN(C(=S)Nc1ccccc1Cl)C2 | 67.1% | > 50 µM | 53.5% | 20.5 µM | 20.8 µM | 66.3%
20 | NC(=O)c1c(NC(=O)c2ccc(C(F)(F)F)cc2)sc2c1CCN(Cc1c(Cl)cccc1Cl)C2 | 35.6% | > 50 µM | 38.7% | 8.53 µM | 10.6 µM | 37.3%
21 | NC(=O)c1c(NC(=O)c2ccccc2Cl)sc2c1CCNC2 | 64.9% | 45 µM | 62.7% | 28.7 µM | 18.6 µM | 61.5%
22 | NC(=O)c1c(NC(=O)c2ccccc2Br)sc2c1CCN(C(=S)Nc1ccccc1F)C2 | 68.7% | > 50 µM | 65.7% | > 50 µM | > 50 µM | 70.1%
23 | NC(=O)c1c(NC(=O)c2ccccc2C(F)(F)F)sc2c1CCN(C(=S)Nc1ccccc1Cl)C2 | 80.9% | 46.9 µM | 56.5% | 21.9 µM | 17.6 µM | 78.8%

The next molecules have a lower IC50 (HeLa) than those just listed; values first:

Row | inhibition [1] | IC50 (HeLa) | inhibition [2] | IC50 (MKN-74) | IC50 (HL-60) | inhibition [3] | SMILES
24 | 85.7% | 26.7 µM | 76.6% | 1.87 µM | 10.6 µM | 83.6% | NC(=O)c1c(NC(=O)c2ccccc2Cl)sc2c1CCN(C(=S)Nc1ccccc1C(F)(F)F)C2
25 | 65.2% | 27.5 µM | 65.1% | 4.43 µM | 2.9 µM | 61.4% | NC(=O)c1c(NC(=O)c2ccccc2Cl)sc2c1CCN(Cc1ccccc1Cl)C2
26 | 89.2% | 38.6 µM | 80.3% | 24.3 µM | 26.7 µM | 91% | NC(=O)c1c(NC(=O)c2ccccc2Cl)sc2c1CCN(C(=O)Nc1cc(C(F)(F)F)cc(C(F)(F)F)c1)C2
27 | 68.6% | 19.4 µM | 65.2% | 11.1 µM | 12.5 µM | 62.4% | NC(=O)c1c(NC(=O)c2ccccc2F)sc2c1CCN(C(=S)Nc1ccccc1Cl)C2
28 | 63.4% | 34.7 µM | 49.1% | 6.55 µM | 30.5 µM | 67.2% | CSc1ccccc1C(=O)Nc1sc2c(c1C(N)=O)CCN(C(=S)Nc1ccccc1Cl)C2
29 | 87.3% | 28.9 µM | 81% | 2.63 µM | 4.43 µM | 88% | NC(=O)c1c(NC(=O)c2ccccc2Cl)sc2c1CCN(C(=S)Nc1ccccc1I)C2
30 | 65.9% | 35.3 µM | 53% | 11 µM | 20.9 µM | 70.6% | Cc1ccccc1C(=O)Nc1sc2c(c1C(N)=O)CCN(C(=S)Nc1ccccc1Cl)C2
31 | 64.6% | 43.6 µM | 52.6% | 13.8 µM | 14.6 µM | 69.5% | CSc1ccccc1NC(=S)N1CCc2c(sc(NC(=O)c3ccccc3Cl)c2C(N)=O)C1
32 | 72.1% | 39.6 µM | 78.6% | 24.3 µM | 27.4 µM | 79.3% | NC(=O)c1c(NC(=O)c2ccccc2Br)sc2c1CCN(C(=S)Nc1ccccc1C(F)(F)F)C2
33 | 68.7% | 36.4 µM | 55.7% | 19.6 µM | 15.7 µM | 78.1% | COc1ccc(NC(=S)N2CCc3c(sc(NC(=O)c4ccccc4Cl)c3C(N)=O)C2)cc1
34 | 66.6% | 21.1 µM | 63.1% | 16.3 µM | 8.01 µM | 68.9% | NC(=O)c1c(NC(=O)c2ccccc2Cl)sc2c1CCN(Cc1ccc(Cl)cc1Cl)C2
35 | 75% | 27.2 µM | 82.9% | 25.8 µM | 16.4 µM | 80.2% | NC(=O)c1c(NC(=O)c2cccc([N+](=O)[O-])c2)sc2c1CCN(C(=S)Nc1cc(C(F)(F)F)cc(C(F)(F)F)c1)C2
36 | 86.9% | 24.6 µM | 88.5% | 10.8 µM | 9.09 µM | 90.9% | NC(=O)c1c(NC(=O)c2ccccc2Cl)sc2c1CCN(C(=S)Nc1ccccc1Br)C2
37 | 85% | 27.2 µM | 82.7% | 24.4 µM | 17.7 µM | 82.7% | NC(=O)c1c(NC(=O)c2ccccc2Cl)sc2c1CCN(C(=O)Nc1c(Cl)cccc1Cl)C2
38 | 62.9% | 38.4 µM | 63.7% | 14.5 µM | 12 µM | 60.1% | NC(=O)c1c(NC(=O)c2ccccc2Cl)sc2c1CCN(Cc1ccccc1)C2
39 | 90.5% | 26.5 µM | 88% | 4.02 µM | 3.95 µM | 90.7% | NC(=O)c1c(NC(=O)c2ccccc2Cl)sc2c1CCN(C(=S)Nc1c(Cl)cccc1Cl)C2
